For eight compounds, Ki, IC50 and Activity results are on record in ChEMBL document CHEMBL2040778, “The binding of C5-alkynyl and alkylfurano[2,3-d]pyrimidine glucopyranonucleosides to glycogen phosphorylase b: synthesis, biochemical and biological assessment” (Eur J Med Chem, 2012).

The target in data set [1] is Glycogen phosphorylase, muscle form, Oryctolagus cuniculus (UniProt P00489). Briefly: Inhibition of glycogen phosphorylase b.
Data set [2] has as its target T1, Glycogen phosphorylase, muscle form (Oryctolagus cuniculus, UniProt P00489).
T1 sequence (P00489 whole entry): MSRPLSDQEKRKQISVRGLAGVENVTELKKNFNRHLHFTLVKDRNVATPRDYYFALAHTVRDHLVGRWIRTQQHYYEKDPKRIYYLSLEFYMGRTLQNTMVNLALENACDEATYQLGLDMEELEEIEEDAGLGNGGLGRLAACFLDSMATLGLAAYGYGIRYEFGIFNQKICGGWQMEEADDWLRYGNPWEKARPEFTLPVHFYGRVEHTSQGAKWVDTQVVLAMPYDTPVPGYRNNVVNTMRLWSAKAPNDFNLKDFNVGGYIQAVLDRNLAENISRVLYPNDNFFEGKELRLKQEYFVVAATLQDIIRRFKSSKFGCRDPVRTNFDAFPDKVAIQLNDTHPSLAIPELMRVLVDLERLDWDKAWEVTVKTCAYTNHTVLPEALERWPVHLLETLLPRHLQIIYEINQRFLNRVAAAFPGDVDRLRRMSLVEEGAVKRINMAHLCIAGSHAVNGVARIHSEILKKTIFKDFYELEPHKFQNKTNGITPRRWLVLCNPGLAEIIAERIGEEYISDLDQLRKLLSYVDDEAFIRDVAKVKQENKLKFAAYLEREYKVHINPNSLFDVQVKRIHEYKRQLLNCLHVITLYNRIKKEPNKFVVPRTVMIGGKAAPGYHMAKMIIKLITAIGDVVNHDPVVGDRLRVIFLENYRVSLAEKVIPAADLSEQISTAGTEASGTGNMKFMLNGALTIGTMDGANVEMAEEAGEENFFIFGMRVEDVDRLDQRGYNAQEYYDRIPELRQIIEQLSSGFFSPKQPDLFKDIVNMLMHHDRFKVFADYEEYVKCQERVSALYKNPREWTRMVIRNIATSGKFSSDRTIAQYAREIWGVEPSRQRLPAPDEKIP
Briefly: Competitive inhibition of rabbit skeletal muscle glycogen phosphorylase b using Glc-1-P as substrate. Set-up: species or system Muscle tissue.

Data set [3] deals with HepG2. Briefly: Cytotoxicity against human HepG2 cells assessed as decrease in viability up to 500 uM after 6 hrs by MTT assay relative to control. The class given is cell-based. The note with it: hepg2, 6 h. (Tetrazolium dyes change colour on reduction, which living cells bring about.)
For data set [4], the target named is T2, Glycogen phosphorylase, muscle form (Homo sapiens, UniProt P11217).
T2 sequence (P11217 whole entry): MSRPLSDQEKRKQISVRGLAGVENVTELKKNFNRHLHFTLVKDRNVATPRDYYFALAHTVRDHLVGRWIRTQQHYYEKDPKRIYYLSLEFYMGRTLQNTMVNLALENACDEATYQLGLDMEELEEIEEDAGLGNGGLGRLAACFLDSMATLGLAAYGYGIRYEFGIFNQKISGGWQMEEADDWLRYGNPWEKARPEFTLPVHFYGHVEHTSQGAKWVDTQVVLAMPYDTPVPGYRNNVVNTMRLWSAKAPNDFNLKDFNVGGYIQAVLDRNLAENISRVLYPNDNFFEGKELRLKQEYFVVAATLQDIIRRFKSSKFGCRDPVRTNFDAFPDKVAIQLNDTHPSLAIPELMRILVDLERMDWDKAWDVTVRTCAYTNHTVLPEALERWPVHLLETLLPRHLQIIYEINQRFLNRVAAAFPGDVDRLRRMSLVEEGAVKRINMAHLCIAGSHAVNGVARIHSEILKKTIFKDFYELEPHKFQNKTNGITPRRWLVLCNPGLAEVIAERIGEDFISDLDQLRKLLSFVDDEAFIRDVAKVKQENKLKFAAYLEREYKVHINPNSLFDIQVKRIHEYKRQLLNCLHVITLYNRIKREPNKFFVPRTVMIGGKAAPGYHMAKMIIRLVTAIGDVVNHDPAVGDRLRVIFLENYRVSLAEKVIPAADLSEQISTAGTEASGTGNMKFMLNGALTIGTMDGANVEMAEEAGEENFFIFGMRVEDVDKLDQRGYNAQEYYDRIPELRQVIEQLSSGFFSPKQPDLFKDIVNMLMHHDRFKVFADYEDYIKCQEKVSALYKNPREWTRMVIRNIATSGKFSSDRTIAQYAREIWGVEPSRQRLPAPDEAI
Put plainly: Inhibition of glycogen phosphorylase b in human HepG2 cells after 3 hrs. In kind it is cell-based.

Data set [5] deals with HepG2. Put plainly: Cytotoxicity against human HepG2 cells up to 150 uM after 6 hrs by MTT assay. The class given is cell-based. Particulars: hepg2, 6 h.

Take `O=c1[nH]c(=O)n([C@@H]2O[C@H](CO)[C@@H](O)[C@H](O)[C@H]2O)cc1I`: in data set [1], the Ki (in general, a measure of affinity in units of concentration, obtained from inhibition or displacement) was determined as 1.94 µM.

In the case of `CCCC#Cc1cn([C@@H]2O[C@H](CO)[C@@H](O)[C@H](O)[C@H]2O)c(=O)[nH]c1=O`, the inhibition constant (Ki) in data set [2] came out at 303 µM. In the case of `CCCCCC#Cc1cn([C@@H]2O[C@H](CO)[C@@H](O)[C@H](O)[C@H]2O)c(=O)[nH]c1=O`, the IC50 – broadly, the concentration at which inhibition is half-maximal – in data set [2] turned out to be 6100 µM. That is a millimolar value. In turn, `C#Cc1cn([C@@H]2O[C@H](CO)[C@@H](O)[C@H](O)[C@H]2O)c(=O)[nH]c1=O` returned an inhibition constant Ki in data set [2] of 4.7 µM. In addition, the Activity with HepG2 [3] was 10%; in the data set on HepG2 [5], “Non-toxic”. In data set [4], the concentration for half-maximal inhibition (IC50) stood at 291 µM.

`CCCc1cc2cn([C@@H]3O[C@H](CO)[C@@H](O)[C@H](O)[C@H]3O)c(=O)nc2o1` returned a Ki in data set [2] of 32.4 µM. For the compound `CCCCCc1cc2cn([C@@H]3O[C@H](CO)[C@@H](O)[C@H](O)[C@H]3O)c(=O)nc2o1`, the Ki in data set [2] was determined as 33.4 µM. The Ki values of the last two compounds are within 1.5-fold of each other.

Turning to `O=c1[nH]c(=O)n([C@@H]2O[C@H](CO)[C@@H](O)[C@H](O)[C@H]2O)cc1Cl`, the Ki in data set [2] and in data set [1] was 1.02 µM throughout. Compound `O=c1[nH]c(=O)n([C@@H]2O[C@H](CO)[C@@H](O)[C@H](O)[C@H]2O)cc1Br` came in with an inhibition constant Ki in data set [1] of 3.27 µM.
